4 compounds from patent publication US10555894B2, “Plant extract comprising sucrose esters as an active agent for use in cosmetic, dermatological or nutricosmetic composition” (COSMO INTERNATIONAL INGREDIENTS, priority 2014, dated 2020) can be followed below.

The subject of experiment [1] is normal human epidermal melanocytes (NHEM). As to the kind of experiment: Synthesis of melanin in melanocytes stimulated by L-tyrosine. It counts as cell-based. As to conditions: L-tyrosine 1 mM, 10 days, tested at 5 μg/ml. The method, then:
The depigmentation effect potential of the Uchuva extract has been researched in a model of normal human epidermal melanocytes (NHEM). The effect of the Uchuva extract on the synthesis of melanin has been evaluated after ten incubation days under conditions stimulated by L-tyrosine. In this test, the reference inhibitory molecule is lipoic acid. Its action mechanism calls for an inhibition of the expression of the MITF transcription factor (microphthalmia-associated transcription factor). This transcription factor is the major regulator of the expression of tyrosinase and its inhibition results in the reduction of the expression of tyrosinase, enzyme involved in the melanin synthesis. The melanocytes have been sown in 24 wells plate and cultivated in the culture medium for 24 hours. […] After incubation, the melanin has been extracted by lysis of the cells with a solution of NaOH 0.5 N. The optical density (OD) of the samples has been measured at 405 nm, then the quantity of melanin has been determined in comparison with a range of exogenous melanin (melanin curve including standards from 0.39 to 100 μg/ml). […] After dissociation of the cells and solubilisation of the formazan by addition of DMSO, the optical density (OD), which represents the number of living cells and their metabolic activity, has been measured with a 540 nm microplate reader (VERSAmax, Molecular Devices).

Experiment [2] concerns coding genes for differentiation proteins of the keratinocyte in normal human epidermal keratinocytes (NHEK). Briefly: Transcriptomic analysis (Affymetrix U219 chip) of treated keratinocytes. The format is cell-based. The note with it: 0.8 μg/ml; for expression of coding genes for differentiation proteins of the keratinocyte: KRT1, IVL, DSG1, DSC1, SPRR2A, SPRR2E, SPRR1A, SPRR2D, CALML5, SBSN and KRTDAP: 4 or 24 hours; for effect on the differentiation of the keratinocytes: deduced from gene expression. The method, then: (§1) The effects of fractions I, II and […] have been researched on by transcriptomic analysis on models of normal human epidermal keratinocytes and human dermal fibroblasts. This global transcript expression analysis has been carried out after 4 to 24 hours of incubation by using the Affymetrix GeneAtlas™ platform and the U219 “full human transcriptome” chip containing 36,000 transcripts and variants.
(§2) • Cellular type: Normal human epidermal keratinocytes (NHEK) • Culture conditions: 37° C., 5% CO2 • Culture medium: Keratinocyte-SFM supplemented with Epidermal Growth Factor (EGF) 0.25 ng/ml Pituitary Extract (PE) 25 μg/ml Gentamycin 25 μg/ml • Test medium: Keratinocyte-SFM supplemented with Gentamycin 25 μg/ml Normal Human Dermal Fibroblasts (NHDF) • Cellular type: Normal human dermal fibroblasts (NHDF), • Culture conditions: 37° C., 5% CO2 • Culture medium: DMEM supplemented with • L-glutamine 2 mM • Penicillin 50 U/ml—Streptomycin 50 μg/ml • Calf foetal serum (CFS) 10% • Test medium: DMEM supplemented with • L-glutamine 2 mM • Penicillin 50 U/ml—Streptomycin 50 μg/ml • CFS 1% 2. Tested Compounds
The cells have been introduced and cultivated in the culture medium for 24 hours and then incubated in their test medium for another 24 hours. Then, the medium has been replaced by the test medium containing or not containing (control) the test compounds and the cells have been incubated for 4 or 24 hours. All the conditions have been completed in n=3.
At the end of the incubation, the culture supernatants have been removed and the cell layers have been rinsed with a PBS solution. The plates have been immediately dry frozen at −80° C.
The total RNA of each sample have been extracted using TriPure Isolation Reagent® as per the protocol recommended by the supplier. The quantity and quality of the RNA have been evaluated by capillary electrophoresis (Bioanalyzer 2100, Agilent).
The amplification of the RNA and the synthesis of the biotinylated RNA analogues (RNAa) have been carried out using the “GeneChip 3'IVT Express” kit (Affymetrix®). The single-strand complementary DNA (cDNA) have been synthesised by reverse transcription of the total RNA in the presence of oligo(dT). By action of a DNA polymerase, a double-stranded cDNA (ds DNA) has been synthesised. Biotinylated RNA have then been synthesised from the cDNA and in the presence of biotinylated ribonucleotide analogues. After a purification stage on magnetic beads, which enables to remove salts, enzymes and free nucleotides, the biotinylated RNA have been hydrolysed into fragments from 35 to 200 nucleotides with a peak at 100-120 nucleotides (fragmented targets). […]

For experiment [3], the system named is coding gene for fibrillin 1 (FBN1) in normal human dermal fibroblasts (NHDF). As to the kind of experiment: Transcriptomic analysis (Affymetrix U219 chip) of treated fibroblasts. It counts as cell-based. The note with it: 0.8 μg/ml. On the procedure:
as §1
as §2, with “Compounds […]” for “Compounds”
The total RNA of each sample have been extracted using TriPure Isolation Reagent® as per the protocol recommended by the supplier. The quantity and quality of the RNA have been evaluated by capillary electrophoresis (Bioanalyzer 2100, Agilent). […]

The test system of the next experiment is Collagen IV. Briefly: Expression of Collagen IV in fibroblasts by immunocytology, fluorescence scoring. It counts as cell-based, human. As to conditions: positive control element, 48 hours. The method, then: The two concentrations of 4.10-5% and 8.10-5% of the Uchuva extract have been tested.
The cells are introduced on D0, in Millicell 8 wells slides, at a rate of 4.103 cells per ml in 400 μl of complete medium. They are treated on D1 for 48 hours with culture in a complete medium. The concentrations of the active to be tested are expressed in % of the extract. The stock solution of the extract has been prepared in DMSO with 20% concentration (w/v). The first dilution has been made to 1/1000th. The following dilutions have been made while maintaining the final DMSO concentration at 0.1%. After 48 hours, the cells are fixed by an alcohol/acid mixture. Then, the cells are marked using an anti-collagen IV antibody (Rockland) diluted in PBS+BSA/tween to 1/50 for 1 hour. The slides are then rinsed twice by PBS. The revelation of the specific marking is done using an FITC coupled secondary antibody (Santa-Cruz) diluted in PBS+BSA/tween to 1/100 for 1 hour. The slides are then rinsed twice by PBS and put between the slide and the cover glass using the RotiMount Fluocare+DAPI (Roth) mounting fluid.
Photos in green and blue are taken using a DP72 camera (Olympus, Japan) connected to a BX-60 epifluorescence microscope (Olympus, Japan).
The photos have been observed by two readers and a scoring of the intensity of fluorescence has done on a linear scale from 0 (no marking) to 4 (very high marking). […]

Regarding `O=C(O)CCCC[C@@H]1CCSS1` (racemic) [lipoic acid], in experiment [1], the “inhibition of the synthesis of melanin” value amounted to 108%.
Turning to `CCCCCCCCCC(=O)O[C@H]1[C@@H](O[C@]2(CO)O[C@H](CO)[C@@H](O)[C@@H]2OC(=O)C(C)C)O[C@H](CO)[C@@H](OC(=O)C(C)C)[C@@H]1OC(=O)C(C)C` [Fraction I, 3-O-(2-methyl-1-oxopropyl)-β-D-fructofuranosyl (1→2)-3,4-bis(2-methylpropanoate)-2-decanoate-α-D-glucopyranoside], in experiment [2], the “expression of coding genes for differentiation proteins of the keratinocyte: KRT1, IVL, DSG1, DSC1, SPRR2A, SPRR2E, SPRR1A, SPRR2D, CALML5, SBSN and KRTDAP” value is “expression inhibitions”; the “effect on the differentiation of the keratinocytes” value is recorded as “anti differentiating effect”.
For `CCCCCCCCCC(=O)O[C@H]1[C@@H](O[C@]2(CO)O[C@H](CO)[C@@H](O)[C@@H]2OC(=O)CC(C)C)O[C@H](CO)[C@@H](OC(=O)C(C)C)[C@@H]1OC(=O)C(C)C` [Fraction II, 3-O-(3-methyl-1-oxobutyl)-β-D-fructofuranosyl (1→2)-3,4-bis(2-methylpropanoate)-2-decanoate-α-D-glucopyranoside], the “expression of the coding gene for fibrillin 1 (FBN1), fold change” value in experiment [3] (4 hours) was found to be 3.27 X. The “expression of the coding gene for fibrillin 1 (FBN1), fold change” value in experiment [3] (24 hours) was determined as 8.24 X. Besides, in experiment [2], the “expression of coding genes for differentiation proteins of the keratinocyte: KRT1, IVL, DSG1, DSC1, SPRR2A, SPRR2E, SPRR1A, SPRR2D, CALML5, SBSN and KRTDAP” value is reported as “expression inhibitions”; the “effect on the differentiation of the keratinocytes” value is on record as “anti differentiating effect”.
Regarding `C[C@H](O)[C@H](O)[C@@H](O)[C@@H](O)C=O` [rhamnose], in the experiment with Collagen IV, the “increase in expression of Collagen IV, amplitude compared with the Uchuva extract” value was “comparable”.
